Results published in ChEMBL document CHEMBL1909574, “Acid mediated formation of an N-acyliminium ion from tubulysins: a new methodology for the synthesis of natural tubulysins and their analogs” (Bioorg Med Chem Lett, 2011).

system: KB; assay: Growth inhibition of human KB cells by [3H]thymidine incorporation assay; type: functional, cell-based; settings: Homo sapiens, KB

SMILES	IC50
CCCCSCN(C(=O)[C@@H](NC(=O)[C@H]1CCCCN1C)[C@@H](C)CC)[C@H](C[C@@H](OC(C)=O)c1nc(C(=O)N[C@@H](Cc2ccc(O)cc2)C[C@H](C)C(=O)O)cs1)C(C)C	0.7 nM
CCCCCSCN(C(=O)[C@@H](NC(=O)[C@H]1CCCCN1C)[C@@H](C)CC)[C@H](C[C@@H](OC(C)=O)c1nc(C(=O)N[C@@H](Cc2ccc(O)cc2)C[C@H](C)C(=O)O)cs1)C(C)C	0.8 nM
CC[C@H](C)[C@H](NC(=O)[C@H]1CCCCN1C)C(=O)N(CSCCO)[C@H](C[C@@H](OC(C)=O)c1nc(C(=O)N[C@@H](Cc2ccc(O)cc2)C[C@H](C)C(=O)O)cs1)C(C)C	26 nM
CC[C@H](C)[C@H](NC(=O)[C@H]1CCCCN1C)C(=O)N(COC)[C@H](C[C@@H](OC(C)=O)c1nc(C(=O)N[C@@H](Cc2ccc(O)cc2)C[C@H](C)C(=O)O)cs1)C(C)C	9 nM
CCCOCN(C(=O)[C@@H](NC(=O)[C@H]1CCCCN1C)[C@@H](C)CC)[C@H](C[C@@H](OC(C)=O)c1nc(C(=O)N[C@@H](Cc2ccc(O)cc2)C[C@H](C)C(=O)O)cs1)C(C)C	1.4 nM
CC[C@H](C)[C@H](NC(=O)[C@H]1CCCCN1C)C(=O)N(COCCC(C)C)[C@H](C[C@@H](OC(C)=O)c1nc(C(=O)N[C@@H](Cc2ccc(O)cc2)C[C@H](C)C(=O)O)cs1)C(C)C	12 nM
CC[C@H](C)[C@H](NC(=O)[C@H]1CCCCN1C)C(=O)N(COCCO)[C@H](C[C@@H](OC(C)=O)c1nc(C(=O)N[C@@H](Cc2ccc(O)cc2)C[C@H](C)C(=O)O)cs1)C(C)C	18 nM
CCSCN(C(=O)[C@@H](NC(=O)[C@H]1CCCCN1C)[C@@H](C)CC)[C@H](C[C@@H](OC(C)=O)c1nc(C(=O)N[C@@H](Cc2ccc(O)cc2)C[C@H](C)C(=O)O)cs1)C(C)C	2 nM
CCCSCN(C(=O)[C@@H](NC(=O)[C@H]1CCCCN1C)[C@@H](C)CC)[C@H](C[C@@H](OC(C)=O)c1nc(C(=O)N[C@@H](Cc2ccc(O)cc2)C[C@H](C)C(=O)O)cs1)C(C)C	1.4 nM
CC[C@H](C)[C@H](NC(=O)[C@H]1CCCCN1C)C(=O)N(CSCCS)[C@H](C[C@@H](OC(C)=O)c1nc(C(=O)N[C@@H](Cc2ccc(O)cc2)C[C@H](C)C(=O)O)cs1)C(C)C	26 nM
CC[C@H](C)[C@H](NC(=O)[C@H]1CCCCN1C)C(=O)N(CNC(=O)CC(C)C)[C@H](C[C@@H](OC(C)=O)c1nc(C(=O)N[C@@H](Cc2ccc(O)cc2)C[C@H](C)C(=O)O)cs1)C(C)C	8 nM
C=CCCN(C(=O)[C@@H](NC(=O)[C@H]1CCCCN1C)[C@@H](C)CC)[C@H](C[C@@H](OC(C)=O)c1nc(C(=O)N[C@@H](Cc2ccc(O)cc2)C[C@H](C)C(=O)O)cs1)C(C)C	1.3 nM
CCCC(=O)OCN(C(=O)[C@@H](NC(=O)[C@H]1CCCCN1C)[C@@H](C)CC)[C@H](C[C@@H](OC(C)=O)c1nc(C(=O)N[C@@H](Cc2ccc(O)cc2)C[C@H](C)C(=O)O)cs1)C(C)C [TUBULYSIN B]	2 nM

same assay, conditions: kb

SMILES	IC50
CC[C@@H](C)[C@H](NC(=O)[C@H]1CCCCN1C)C(=O)N(COC(=O)CC(C)C)[C@H](C[C@@H](OC(C)=O)c1nc(C(=O)N[C@@H](Cc2ccc(O)cc2)C[C@H](C)C(=O)O)cs1)C(C)C [TUBULYSIN A]	1 nM
